Laboratory results: patent US10751802B1, “Method of producing silver nanoparticles using red sand” (KING SAUD UNIVERSITY, priority 2019, dated 2020)

Experiments:
S. aureus = test: combination effect of silver nanoparticles with antibiotic discs; format: cell-based, Staphylococcus aureus; settings: antibiotic disc alone; RD 5 μg, E 15 μg, TOB 10 μg, TGC 15 μg, MXF 5 μg, LEV 5 μg; Mueller-Hinton agar, 24 hours at 37° C.
Experimental: (§1) Moreover, combination effects were determined by first adjusting the turbidity of the previously mentioned bacterial strains to 0.5 MacFarland standards (10^8 CFU/mL), and swabbing the strains on Mueller-Hinton agar. Antibiotic discs alone were used as controls, respectively. […] To study the combination effect, 30 μl of the exemplary silver nanoparticles were loaded on the antibiotics discs then placed on the swabbed medium. The plates were incubated for 24 hours at 37° C. The diameters of the inhibition zones were measured and reported in millimeters.

E. coli = test: as above; format: cell-based, Escherichia coli; settings: antibiotic disc alone; F 100 μg, FOS 50 μg, TE 30 μg, FEP 30 μg, MXF 5 μg, LEV 5 μg; Mueller-Hinton agar, 24 hours at 37° C.
Experimental: as §1

P. vulgaris = test: as above; format: cell-based, Proteus vulgaris; settings: antibiotic disc alone; F 100 μg, FOS 50 μg, TE 30 μg, FEP 30 μg, MXF 5 μg, LEV 5 μg; Mueller-Hinton agar, 24 hours at 37° C.
Experimental: as §1

A. baumannii = test: as above; format: cell-based, Acinetobacter baumannii; settings: antibiotic disc alone; F 100 μg, FOS 50 μg, TE 30 μg, FEP 30 μg, MXF 5 μg, LEV 5 μg; Mueller-Hinton agar, 24 hours at 37° C.
Experimental: as §1

S. typhimurium = test: as above; format: cell-based, Salmonella typhimurium; settings: antibiotic disc alone; F 100 μg, FOS 50 μg, TE 30 μg, FEP 30 μg, MXF 5 μg, LEV 5 μg; Mueller-Hinton agar, 24 hours at 37° C.
Experimental: as §1

[1] = test system: Salmonella typhimurium (ATCC 14028); test: agar well diffusion assay, inhibition zone; format: cell-based; settings: standard antibiotic disc CN (10), control
Experimental: (§2) Antibacterial activity of the exemplary silver nanoparticles, prepared as described above (except that centrifuging and drying were omitted, i.e., antimicrobial testing was performed without removing the silver nanoparticles from the red sand extract), was evaluated against pathogenic bacterial reference strains of Acinetobacter baumannii (ATCC 19606), Salmonella typhimurium (ATCC 14028), Escherichia coli (ATCC 35218), Pseudomonas aeruginosa (27853 AT), Staphylococcus aureus (25923 AT) and Proteus vulgaris (ATCC 49132) using an agar well diffusion assay. In particular, the antibacterial activity against each strain was determined by measuring the inhibition zone. Standard antibiotic discs, including Gentamycin (CN10 μg), Augmantin (AMC 30 μg), and Ciprofloxacin (CIP 5 μg), were used as controls.

[2] = test system: Staphylococcus aureus (25923 AT); test: agar well diffusion assay, inhibition zone; format: cell-based; settings: standard antibiotic disc CN (10), control
Experimental: as §2

[3] = test system: Escherichia coli (ATCC 35218); test: agar well diffusion assay, inhibition zone; format: cell-based; settings: standard antibiotic disc CIP (5), control
Experimental: as §2

[4] = test system: Pseudomonas aeruginosa (27853 AT); test: agar well diffusion assay, inhibition zone; format: cell-based; settings: standard antibiotic disc CIP (5), control
Experimental: as §2

[5] = test system: Acinetobacter baumannii (ATCC 19606); test: agar well diffusion assay, inhibition zone; format: cell-based; settings: standard antibiotic disc CIP (5), control
Experimental: as §2

P. aeruginosa = test: combination effect of silver nanoparticles with antibiotic discs; format: cell-based, Pseudomonas aeruginosa; settings: antibiotic disc alone; F 100 μg, FOS 50 μg, TE 30 μg, FEP 30 μg, MXF 5 μg, LEV 5 μg; Mueller-Hinton agar, 24 hours at 37° C.
Experimental: as §1

[6] = test system: Proteus vulgaris (ATCC 49132); test: agar well diffusion assay, inhibition zone; format: cell-based; settings: standard antibiotic disc AMC (30), control
Experimental: as §2

Compound | C: inhibition zone of the antibiotic alone as a control (S. aureus) [mm] | C: inhibition zone of the antibiotic alone as a control (E. coli) [mm] | C: inhibition zone of the antibiotic alone as a control (P. vulgaris) [mm] | C: inhibition zone of the antibiotic alone as a control (A. baumannii) [mm] | C: inhibition zone of the antibiotic alone as a control (S. typhimurium) [mm] | C: inhibition zone of the antibiotic alone as a control (P. aeruginosa) [mm] | also measured
CC[C@H]1OC(=O)[C@H](C)[C@@H](O[C@H]2C[C@@](C)(OC)[C@@H](O)[C@H](C)O2)[C@H](C)[C@@H](O[C@@H]2O[C@H](C)C[C@H](N(C)C)[C@H]2O)[C@](C)(O)C[C@@H](C)C(=O)[C@H](C)[C@@H](O)[C@]1(C)O [Erythromycin] | 32 | – | – | – | – | – | –
O=C1CN(/N=C/c2ccc([N+](=O)[O-])o2)C(=O)N1 [Nitrofurantoin] | – | 21.5 | 10 | 11 | 23.5 | – | –
Gentamycin [CN] | – | – | – | – | – | – | Diameter of inhibition zone, standard antibiotic disc [1]: CN (10) = 24 mm; Diameter of inhibition zone, standard antibiotic disc [2]: CN (10) = 30 mm
CO[C@H]1/C=C/O[C@@]2(C)Oc3c(C)c(O)c4c(O)c(c(/C=N/N5CCN(C)CC5)c(O)c4c3C2=O)NC(=O)/C(C)=C\C=C\[C@H](C)[C@H](O)[C@@H](C)[C@@H](O)[C@@H](C)[C@H](OC(C)=O)[C@@H]1C [Rifampicin] | 34.5 | – | – | – | – | – | –
O=C(O)c1cn(C2CC2)c2cc(N3CCNCC3)c(F)cc2c1=O [CIP, Ciprofloxacin] | – | – | – | – | – | – | Diameter of inhibition zone, standard antibiotic disc [3]: CIP (5) = 33 mm; Diameter of inhibition zone, standard antibiotic disc [4]: CIP (5) = 31 mm; Diameter of inhibition zone, standard antibiotic disc [5]: CIP (5) = 25 mm
NC[C@H]1O[C@H](O[C@H]2[C@H](O)[C@@H](O[C@H]3O[C@H](CO)[C@@H](O)[C@H](N)[C@H]3O)[C@H](N)C[C@@H]2N)[C@H](N)C[C@@H]1O [Tobramycin] | 26 | – | – | – | – | – | –
C[C@@H]1O[C@@H]1P(=O)(O)O [Fosfomycin] | – | 24 | 11 | 10 | 20.5 | 27 | –
CN(C)c1cc(NC(=O)CNC(C)(C)C)c(O)c2c1C[C@H]1C[C@H]3[C@H](N(C)C)C(O)=C(C(N)=O)C(=O)[C@@]3(O)C(O)=C1C2=O [Tigecycline] | 24 | – | – | – | – | – | –
COc1c(N2C[C@@H]3CCCN[C@@H]3C2)c(F)cc2c(=O)c(C(=O)O)cn(C3CC3)c12 [Moxifloxacin] | 33 | 31 | 19. | 20 | 30 | 22.5 | –
CO/N=C(\C(=O)N[C@@H]1C(=O)N2C(C(=O)[O-])=C(C[N+]3(C)CCCC3)CS[C@H]12)c1csc(N)n1 [Cefepime] | – | – | – | – | 23.5 | 11 | –
Augmantin [AMC] | – | – | – | – | – | – | Diameter of inhibition zone, standard antibiotic disc [6]: AMC (30) = 32 mm
CN(C)[C@@H]1C(O)=C(C(N)=O)C(=O)[C@@]2(O)C(O)=C3C(=O)c4c(O)cccc4[C@@](C)(O)[C@H]3C[C@@H]12 [Tetracycline] | – | 17 | 11. | 11.5 | 18 | 11.5 | –
C[C@H]1COc2c(N3CCN(C)CC3)c(F)cc3c(=O)c(C(=O)O)cn1c23 [Levofloxacin] | 27 | 35 | 33 | 23 | 30 | 27 | –
